In patent publication US11993640B2, “Treating inflammatory lung disease” (United States Government as represented by the Department …, priority 2019, dated 2024):
Entries after “also recorded” stand apart in the source; their conditions may differ. Non-standard residues stand in square brackets, D forms with d. Residues, ends and D or L forms follow the SMILES beside them. *: point of attachment. Phenylacetyl(2,3,4,5,6-F5) = O=C(Cc1c(F)c(F)c(F)c(F)c1F)*; Phe(F5) = N[C@@H](Cc1c(F)c(F)c(F)c(F)c1F)C(=O)O; Phe(4-Cl) = N[C@@H](Cc1ccc(Cl)cc1)C(=O)O; hArg = N=C(N)NCCCC[C@H](N)C(=O)O; 12Ado = NCCCCCCCCCCCC(=O)O; Nle = CCCC[C@H](N)C(=O)O; Orn = NCCC[C@H](N)C(=O)O; Abu = CC[C@H](N)C(=O)O

Key:
NCI-N87 xenograft = experiment: Xenograft tumor growth in nude mice, stomach cancer N87; assay type: in vivo; details: Panel D, 10 weeks, 2 μg/day s.c.
Experimental: The peptides' activity was compared with GHRH antagonist MIA-602. All statistical analyzses were performed from comparing GHRA antagonists to non-treated tumor (control).
Peptides and chemicals. GHRH antagonists MIA-602 and AVR-GHRH antagonists (see Table 2 above) were synthesized by solid phase methods and purified by HPLC. The peptides were dissolved in DMSO and further diluted in 10% 1, 2-propanediol. The final concentration of peptides was 50 µg/ml in 10% 1, 2-propanediol containing 0.1% of DMSO.
(§1) Cell culture. Human cancer cell lines including pancreatic (PANC-1 and CFPAC-1), lung (HCC827 and H460), stomach (NCI-N87), prostate (PC3), brest (MX-1 and HCC-1806), colorectal (HT-29), and ovarian (SK-OV-3 and OVCAR-3) were obtained from the American Type Culture Collection (ATCC) and cultured at 37° C. in a humidified 95% air/5% CO2 atmosphere in the medium recommended by ATCC.
Xenograft models of human cancers in nude mice. Female athymic (NCr nu/nu) nude mice, 5-to 6-weeks-old, obtained from the Envigo labs (Tampa, FL), were housed in laminar airflow cabinets under pathogen-free conditions with a 12-h light/12-h dark schedule, and were fed autoclaved standard chow and water. To generate mice with xenografted tumors, tumor xenografts were initiated by subcutaneous (s.c.) injection of […] human cancer cells into female nude mice. After about 4 weeks the resulting tumors were dissected and collected after removing necrosis tissues. The tumors were then cut into particles with size of ˜3 mm3 and transplanted s.c. by trocar needle into experimental animals. When tumors grew to the size of 50-60 mm3 (by volume), […] of 5 μg of GHRH antagonists MIA-602 or AVR-compounds (2-10 μg as indicated), or vehicle solutions (0.1% DMSO in 10% 1, 2-propanediol) respectively. Tumor sizes were measured weekly.
Statistical analysis. One-way ANOVA followed by Bonferroni comparison were performed. Data are expressed as Mean±SEM. To determine statistical significance between animal groups, two-tailed Student's t-test was conducted. Differences were considered significant when p<0.05.
Results. […] FIG. 1A-N represents in vivo inhibition of tumor growth during the treatment with GHRH antagonist MIA-602 and selected AVR antagonists in nude mice xenografted with various human tumors including pancreatic cancer PANC-1 (FIG. 1A) and CFPAC-1 (FIG. 1I); lung cancer HCC827 (FIGS. 1B, C) and H460 (FIG. 1H); stomach cancer N87 (FIGS. 1D-F); colon cancer HT-29 (FIG. 1G); breast cancer MX-1 and HCC-1806 (FIGS. 1J, K); ovarian cancer SK-OV-3 and OVACAR-3 (FIGS. 1L, M) and prostate cancer PC3 (FIG. 1N). See also Table 5.

NCI-N87 cells = experiment: In vitro cell viability (CellTiter 96), stomach cancer N87; assay type: cell-based, human; details: 5 μM, 72 h; Table 3B
Experimental: (§2) The inhibitory effects of the various synthesized GHRH antagonists were tested in cell proliferation assays in various human cancer cell lines including stomach cancer (KATOIII, N87), colon cancer (HT-29), urothelial cancer (J82, RT4), pancreatic cancer (PANC-1, CFPAC-1), prostatic cancer (PC3), breast cancer (MX-1, HCC1806), ovarian cancer (SK-OV-3, OVCAR-3) and lung cancer (HCC827, H460).
as §1, with “(NCI-N87 and KATOIII), urothelial (J82, RT4), prostatic” for “(NCI-N87), prostate”, “breast” for “brest”, “HCC 1806),” for “HCC-1806),”
(§3) In vitro cell viability. Cell viability was analyzed as follows: cancer cells including pancreatic (PANC-1 and CFPAC-1), lung (HCC827 and H460), stomach (NCI-N87 and KATOIII), urothelial (J82, RT4), prostatic (PC3) and breast (MX-1 and HCC 1806), colorectal (HT-29) and ovarian (SK-OV-3 and OVCAR-3) were grown on 96 well plates to ˜60% confluence, the cells were starved for 24 h in culture medium containing 0.5% FBS. Cells were then treated with GHRH antagonists MIA602 AVR compounds at concentrations of 1, 2.5 or 5 μM, or vehicle (0.1% DMSO) in quintuplicates for 72 hours. The medium was replaced every 48 hours. Cell viability was measured using CellTiter 96 aqueous one solution kit (Promega). Inhibitory effects of tested AVR compounds in comparison to that of MIA602 are presented as inhibitory potency.
(§4) Inhibitory effects of selected AVR compounds in comparison to that of MIA602 are presented as inhibitory potency (e.g., percentage of inhibition). […] The cell lines tested including lung cancer HCC827 (FIG. 2A), pancreatic cancer CFPAC-1 (FIG. 2B), stomach cancer N87 (FIG. 2C), colon cancer HT-29 (FIG. 2D), breast cancers MX-1 and HCC1806 (FIGS. 2E, F). Based on the results of cell proliferation assay after cancer cells were treated with antagonist at concentration of 5 μM for 72H, the relative inhibitory potency of AVR antagonists in comparison to MIA-602 is summarized in Table 3 A and B. Over 60 AVR compounds were tested in 12 cancer cell lines.
(§5) Based on the results of cell proliferation assay after cancer cells were treated with antagonist at concentration of 5 µM for 72H, * at concentration of 2 µM for 72 H.

CFPAC-1 cells = experiment: In vitro cell viability, pancreatic cancer CFPAC-1; assay type: cell-based, human; details: 5 μM, 72 h; relative to MIA602 = 1; Table 3A
Experimental: as §2
as §1, with “(NCI-N87 and KATOIII), urothelial (J82, RT4), prostatic” for “(NCI-N87), prostate”, “breast” for “brest”, “HCC 1806),” for “HCC-1806),”
as §3, §4, §5

[1] = target: T1, membrane GHRH-receptors on human anterior pituitary cells (Homo sapiens, UniProt Q02643); experiment: Competitive receptor binding, displacement of 125I-[His1,Nle27]-hGH-RH(1-32)NH2 from human pituitary membranes
T1 construct: Human pituitary was purchased from the National Hormone and Peptide Program; tissue National Hormone and Peptide Program; host or cells: human pituitary membrane fractions
T1 sequence (Q02643 23-423): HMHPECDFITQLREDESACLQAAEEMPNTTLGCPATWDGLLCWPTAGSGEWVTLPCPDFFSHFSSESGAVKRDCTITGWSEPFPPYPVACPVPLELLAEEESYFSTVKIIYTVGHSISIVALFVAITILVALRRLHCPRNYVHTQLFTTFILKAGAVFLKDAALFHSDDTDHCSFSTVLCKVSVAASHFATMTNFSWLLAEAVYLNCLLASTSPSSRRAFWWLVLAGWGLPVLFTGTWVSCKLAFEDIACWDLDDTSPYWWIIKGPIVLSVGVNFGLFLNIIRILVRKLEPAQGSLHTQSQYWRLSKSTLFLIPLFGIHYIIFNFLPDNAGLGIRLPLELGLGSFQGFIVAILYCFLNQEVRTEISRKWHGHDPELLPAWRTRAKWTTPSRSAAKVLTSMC
Experimental: Receptor binding affinities in vitro. Preparation of human pituitary membrane fractions and receptor binding of analogs of GH-RH were performed (Halmos G, Rekasi Z, Szoke B, Schally A V. (1993) Receptor 3:87-97). Human pituitary was purchased from the National Hormone and Peptide Program. […] Relative affinities compared to hGH-RH(1-29)NH2 were calculated as the ratio of IC50 (dose causing 50% inhibition of specific binding to receptors) of the tested peptides to the IC50 of hGH-RH(1-29)NH2. The values were calculated from technical duplicate tubes.
Nineteen new AVR analogs of GHRH were tested in the receptor binding assay. Table 6 presents the IC50 values of GHRH antagonists to membrane GHRH-receptors binding on human anterior pituitary cells.

HCC827 cells = experiment: In vitro cell viability, lung cancer HCC827; assay type: cell-based, human; details: 5 μM, 72 h; relative to MIA602 = 1; Table 3A
Experimental: as §2
as §1, with “(NCI-N87 and KATOIII), urothelial (J82, RT4), prostatic” for “(NCI-N87), prostate”, “breast” for “brest”, “HCC 1806),” for “HCC-1806),”
as §3, §4, §5

SMILES	Tumor Growth % (NCI-N87 xenograft)	In vitro relative inhibitory potency in comparison to MIA-602, NCI-N87 (NCI-N87 cells)	Relative inhibitory potency, Pancreatic CFPAC-1 (CFPAC-1 cells)	IC50 ([1]; human anterior pituitary membranes, mean of two to three determinations, read-out: IC50)	Relative inhibitory potency, Lung HCC827 (HCC827 cells)	Binding affinity to membrane receptors of human pituitary cells [1]
CCCC[C@H](NC(=O)[C@@H](NC(=O)[C@H](CC(=O)O)NC(=O)[C@H](CCC(N)=O)NC(=O)[C@H](CC(C)C)NC(=O)[C@H](CC(C)C)NC(=O)[C@H](CCCCN)NC(=O)[C@H](CCCNC(=N)N)NC(=O)[C@H](C)NC(=O)[C@H](CO)NC(=O)[C@H](CC(C)C)NC(=O)[C@H](CCC(N)=O)NC(=O)[C@H](CC)NC(=O)[C@H](CC(C)C)NC(=O)[C@@H](NC(=O)[C@H](CCCCN)NC(=O)[C@H](CCCNC(=N)N)NC(=O)[C@H](Cc1ccc(OC)cc1)NC(=O)[C@H](CCCCNC(=N)N)NC(=O)[C@H](CC(N)=O)NC(=O)[C@@H](NC(=O)[C@H](Cc1ccc(Cl)cc1)NC(=O)[C@@H](NC(=O)[C@H](C)NC(=O)[C@H](CC(=O)O)NC(=O)[C@@H](CCCNC(=N)N)NC(=O)[C@H](Cc1ccc(O)cc1)NC(=O)CCCCCCCCCCCNC(=O)Cc1c(F)c(F)c(F)c(F)c1F)[C@@H](C)CC)[C@@H](C)O)C(C)C)[C@@H](C)CC)C(=O)N[C@H](CCCNC(=N)N)C(=O)N[C@@H](CCCCNC(=N)N)C(=O)NCCCCCCCCCCCC(N)=O [AVR-333, 5FPhAC-Ada-Tyr-DArg-Asp-Ala-Ile-Cpa-Thr-Asn-Har-Tyr(Me)-Arg-Lys-Val-Leu-Abu-Gln-Leu-Ser-Ala-Arg-Lys-Leu-Leu-Gln-Asp-Ile-Nle-DArg-Har-Ada-NH2] ({Phenylacetyl(2,3,4,5,6-F5)-12Ado}-Y[dR]DAI[Phe(4-Cl)]TN[hArg]Y(Me)RKVL[Abu]QLSARKLLQDI[Nle][dR][hArg][12Ado]-NH2)	454.00%	1.4				
CCCC[C@H](NC(=O)[C@@H](NC(=O)[C@H](CC(=O)O)NC(=O)[C@H](CCC(N)=O)NC(=O)[C@H](CC(C)C)NC(=O)[C@H](CC(C)C)NC(=O)[C@H](CCCN)NC(=O)[C@H](Cc1c[nH]cn1)NC(=O)[C@H](C)NC(=O)[C@H](CO)NC(=O)[C@H](CC(C)C)NC(=O)[C@H](CCC(N)=O)NC(=O)[C@H](CC)NC(=O)[C@H](CC(C)C)NC(=O)[C@@H](NC(=O)[C@H](CCCN)NC(=O)[C@H](Cc1c[nH]cn1)NC(=O)[C@H](Cc1c(F)c(F)c(F)c(F)c1F)NC(=O)[C@H](CCCCNC(=N)N)NC(=O)[C@H](C)NC(=O)[C@@H](NC(=O)[C@H](Cc1ccc(Cl)cc1)NC(=O)[C@@H](NC(=O)[C@H](C)NC(=O)[C@H](CC(=O)O)NC(=O)[C@@H](CCCNC(=N)N)NC(=O)[C@H](Cc1ccc(O)cc1)NC(=O)CCCCCCCCCCCNC(=O)Cc1c(F)c(F)c(F)c(F)c1F)[C@@H](C)CC)[C@@H](C)O)C(C)C)[C@@H](C)CC)C(=O)N[C@H](CCCNC(=N)N)C(=O)N[C@@H](CCCCNC(=N)N)C(=O)NC [AVR-542, 5FPhAC-Ada-Tyr-DArg-Asp-Ala-Ile-Cpa-Thr-Ala-Har-5FPhe-His-Orn-Val-Leu-Abu-Gln-Leu-Ser-Ala-His-Orn-Leu-Leu-Gln-Asp-Ile-Nle-DArg-Har-NHCH3] ({Phenylacetyl(2,3,4,5,6-F5)-12Ado}-Y[dR]DAI[Phe(4-Cl)]TA[hArg][Phe(F5)]H[Orn]VL[Abu]QLSAH[Orn]LLQDI[Nle][dR][hArg]-NHMe)			1.312	0.21 nM	2.649	
CCCC[C@H](NC(=O)[C@@H](NC(=O)[C@H](CC(=O)O)NC(=O)[C@H](CCC(N)=O)NC(=O)[C@H](CC(C)C)NC(=O)[C@H](CC(C)C)NC(=O)[C@H](CCCN)NC(=O)[C@H](Cc1c[nH]cn1)NC(=O)[C@H](C)NC(=O)[C@H](CO)NC(=O)[C@H](CC(C)C)NC(=O)[C@H](CCC(N)=O)NC(=O)[C@H](CC)NC(=O)[C@H](CC(C)C)NC(=O)[C@@H](NC(=O)[C@H](CCCN)NC(=O)[C@H](Cc1c[nH]cn1)NC(=O)[C@H](Cc1c(F)c(F)c(F)c(F)c1F)NC(=O)[C@H](CCCCNC(=N)N)NC(=O)[C@H](C)NC(=O)[C@@H](NC(=O)[C@H](Cc1ccc(Cl)cc1)NC(=O)[C@@H](NC(=O)[C@H](C)NC(=O)[C@H](CC(=O)O)NC(=O)[C@@H](CCCNC(=N)N)NC(=O)[C@H](Cc1ccc(O)cc1)NC(=O)CCCCCCCCCCCNC(=O)Cc1c(F)c(F)c(F)c(F)c1F)[C@@H](C)CC)[C@@H](C)O)C(C)C)[C@@H](C)CC)C(=O)N[C@H](CCCNC(=N)N)C(=O)N[C@@H](CCCCNC(=N)N)C(=O)NCCCCCCCCCCCC(N)=O [AVR-552, 5FPhAC-Ada-Tyr-DArg-Asp-Ala-Ile-Cpa-Thr-Ala-Har-5FPhe-His-Orn-Val-Leu-Abu-Gln-Leu-Ser-Ala-His-Orn-Leu-Leu-Gln-Asp-Ile-Nle-DArg-Har-Ada-NH2] ({Phenylacetyl(2,3,4,5,6-F5)-12Ado}-Y[dR]DAI[Phe(4-Cl)]TA[hArg][Phe(F5)]H[Orn]VL[Abu]QLSAH[Orn]LLQDI[Nle][dR][hArg][12Ado]-NH2)			1.57		4.376	higher binding affinity in comparison to MIA-602; also recorded: highest binding affinities
